What follows are compounds tested against T1, human GlyT1c transporter (Homo sapiens, UniProt P48067) (assay: Radioligand binding assay using recombinant CHO cell membranes expressing human GlyT1). Conditions: radioligand binding to human GlyT1c transporter-expressing membranes.
T1 construct: expressed in transfected cells; host or cells: CHO cells (recombinant; line hGlyT1c_5_CHO is named for the uptake assay)
T1 sequence (P48067 1-706): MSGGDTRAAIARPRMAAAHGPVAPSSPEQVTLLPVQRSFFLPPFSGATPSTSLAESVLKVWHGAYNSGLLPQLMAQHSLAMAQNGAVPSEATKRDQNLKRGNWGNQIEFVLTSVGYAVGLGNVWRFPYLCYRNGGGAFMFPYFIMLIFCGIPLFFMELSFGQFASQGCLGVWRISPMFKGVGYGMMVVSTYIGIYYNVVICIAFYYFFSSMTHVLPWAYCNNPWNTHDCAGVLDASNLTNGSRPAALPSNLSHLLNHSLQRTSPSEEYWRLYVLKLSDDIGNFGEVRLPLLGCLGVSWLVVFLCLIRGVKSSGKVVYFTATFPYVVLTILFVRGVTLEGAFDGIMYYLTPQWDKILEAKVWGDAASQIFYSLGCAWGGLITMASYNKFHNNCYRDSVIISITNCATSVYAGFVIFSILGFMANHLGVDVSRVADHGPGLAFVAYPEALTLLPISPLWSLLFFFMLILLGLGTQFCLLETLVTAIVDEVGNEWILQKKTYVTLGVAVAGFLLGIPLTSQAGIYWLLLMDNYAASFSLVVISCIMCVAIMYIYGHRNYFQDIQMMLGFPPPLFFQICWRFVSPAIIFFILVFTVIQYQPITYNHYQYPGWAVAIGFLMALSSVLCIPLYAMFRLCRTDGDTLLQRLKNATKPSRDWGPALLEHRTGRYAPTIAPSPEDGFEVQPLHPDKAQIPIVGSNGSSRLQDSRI
Source text: 2. Radioligand binding assays using recombinant CHO cell membranes expressing human GlyT1: […]
`Cn1cnc(S(=O)(=O)N2C[C@@H](Nc3cccc(F)c3)[C@H](c3cccc(F)c3)C2)c1` (relative stereo) [Example 186, trans-N,4-bis(3-fluorophenyl)-1-[(1-methyl-1H-imidazol-4-yl)sulfonyl]pyrrolidin-3-amine] gave a Ki of at most 1000 nM. Compound `Cn1cnc(S(=O)(=O)N2CC(Cc3cccc(Cl)c3)C(C3CC3)C2)c1` (centres unmarked) [Example 309, 4-{[3-(3-chlorobenzyl)-4-cyclopropylpyrrolidin-1-yl]sulfonyl}-1-methyl-1H-imidazole] has a Ki of at most 1000 nM. `CC(C)OCCNC[C@@H]1CN(S(=O)(=O)c2cn(C)cn2)C[C@H]1c1ccc(F)cc1` (relative stereo) [Example 599, N-({trans-4-(4-fluorophenyl)-1-[(1-methyl-1H-imidazol-4-yl)sulfonyl]pyrrolidin-3-yl}methyl)-2-(propan-2-yloxy)ethanamine] showed a Ki of at most 10000 nM. `O=C1CCc2cc(S(=O)(=O)N3CC(Nc4ccc(F)c(F)c4)C(c4ccccc4)C3)ccc2N1` (centres unmarked) [Example 512] gave a Ki of at most 10000 nM. Work on `Cc1nc(Cl)cc(N[C@H]2CN(S(=O)(=O)c3cn(C)cn3)C[C@@H]2c2ccc(F)cc2)n1` [Example 690, 6-chloro-N-{(3R,4S)-4-(4-fluorophenyl)-1-[(1-methyl-1H-imidazol-4-yl)sulfonyl]pyrrolidin-3-yl}-2-methylpyrimidin-4-amine] yielded a Ki of at most 1000 nM. `Cn1cnc(S(=O)(=O)N2C[C@@H](C(=O)c3ccccc3)[C@H](c3ccc(F)cc3)C2)c1` (relative stereo) [Example 271, {trans-4-(4-fluorophenyl)-1-[(1-methyl-1H-imidazol-4-yl)sulfonyl]pyrrolidin-3-yl}(phenyl)methanone] gave a Ki of at most 1000 nM. For `Cn1cnc(S(=O)(=O)N2C[C@H](NCC3CCC(C(F)(F)F)CC3)[C@@H](c3ccc(F)cc3)C2)c1` (stereo partly drawn) [Example 707, (3R,4S)-4-(4-fluorophenyl)-1-[(1-methyl-1H-imidazol-4-yl)sulfonyl]-N-{[4-(trifluoromethyl)cyclohexyl]methyl}pyrrolidin-3-amine], the Ki was at most 1000 nM. Work on `O=C(N[C@@H]1CN(S(=O)(=O)c2cccnc2)C[C@H]1c1ccccc1)c1cccc(C(F)(F)F)c1Cl` (relative stereo) [Example 45, 2-chloro-N-[trans-4-phenyl-1-(pyridin-3-ylsulfonyl)pyrrolidin-3-yl]-3-(trifluoromethyl)benzamide] yielded a Ki of at least 10000 nM. In the case of `Cn1cnc(S(=O)(=O)N2C[C@H](c3ccccc3)[C@H](Nc3ccccc3)C2)c1` (relative stereo) [Example 184, (cis)-1-[(1-methyl-1H-imidazol-4-yl)sulfonyl]-N,4-diphenylpyrrolidin-3-amine], the Ki is reported as at most 10000 nM. For `Cn1cnc(S(=O)(=O)N2C[C@@H](NC(=O)c3cccc(C(F)(F)F)c3)[C@H](c3ccccc3)C2)c1` (relative stereo) [Example 36, N-{trans-1-[(1-methyl-1H-imidazol-4-yl)sulfonyl]-4-phenylpyrrolidin-3-yl}-3-(trifluoromethyl)benzamide], the Ki was at most 1000 nM. Compound `COCCN[C@H]1CN(S(=O)(=O)c2cn(C)cn2)C[C@@H]1c1ccccc1` [Example 600, (3R,4S)-N-(2-methoxyethyl)-1-[(1-methyl-1H-imidazol-4-yl)sulfonyl]-4-phenylpyrrolidin-3-amine] has a Ki of at most 10000 nM. `Cn1cnc(S(=O)(=O)N2C[C@H](Nc3ccc4occc4c3)[C@@H](c3ccccc3)C2)c1` [Example 660, (3R,4S)-N-(1-benzofuran-5-yl)-1-[(1-methyl-1H-imidazol-4-yl)sulfonyl]-4-phenylpyrrolidin-3-amine] was tested, and the Ki was at most 1000 nM. `Cn1cnc(S(=O)(=O)N2C[C@@H](Nc3cccc(F)c3)[C@H](c3ncccc3F)C2)c1` (relative stereo) [Example 805, Trans-N-(3-fluorophenyl)-4-(3-fluoropyridin-2-yl)-1-[(1-methyl-1H-imidazol-4-yl)sulfonyl]pyrrolidin-3-amine] showed a Ki of at most 1000 nM. For `Cn1cnc(S(=O)(=O)N2C[C@@H](Nc3cc(F)c(F)c(Cl)c3)[C@H](c3ccc(F)cc3)C2)c1` (relative stereo) [Example 175, trans-N-(3-chloro-4,5-difluorophenyl)-4-(4-fluorophenyl)-1-[(1-methyl-1H-imidazol-4-yl)sulfonyl]pyrrolidin-3-amine], the Ki was at most 1000 nM. Work on `O=S(=O)(N1CCCC1)N1CC(Nc2ccc(F)c(F)c2)C(c2ccccc2)C1` (centres unmarked) [Example 485, N-(3,4-difluorophenyl)-4-phenyl-1-(pyrrolidin-1-ylsulfonyl)pyrrolidin-3-amine] yielded a Ki of at most 10000 nM. `Cc1cccc(N[C@@H]2CN(S(=O)(=O)c3cn(C)cn3)C[C@H]2c2ccc(F)cc2)c1` (relative stereo) [Example 85, trans-4-(4-fluorophenyl)-1-[(1-methyl-1H-imidazol-4-yl)sulfonyl]-N-(3-methylphenyl)pyrrolidin-3-amine] showed a Ki of at most 10 nM. `Cn1cnc(S(=O)(=O)N2C[C@H](NCc3ccc(C(F)(F)F)cc3Cl)[C@@H](c3ccccc3)C2)c1` [Example 394, (3R,4S)-N-[2-chloro-4-(trifluoromethyl)benzyl]-1-[(1-methyl-1H-imidazol-4-yl)sulfonyl]-4-phenylpyrrolidin-3-amine] was tested, and the Ki was at most 10 nM. `Cn1cnc(S(=O)(=O)N2C[C@@H](C(=O)Nc3ccccc3)[C@H](c3ccc(F)cc3)C2)c1` (relative stereo) [Example 242, trans-4-(4-fluorophenyl)-1-[(1-methyl-1H-imidazol-4-yl)sulfonyl]-N-phenylpyrrolidine-3-carboxamide] showed a Ki of at most 10000 nM. Compound `Cn1cnc(S(=O)(=O)N2C[C@@H](Nc3ccnc(F)c3)[C@H](c3ccc(F)cc3)C2)c1` (relative stereo) [Example 239, 2-fluoro-N-{trans-4-(4-fluorophenyl)-1-[(1-methyl-1H-imidazol-4-yl)sulfonyl]pyrrolidin-3-yl} pyridin-4-amine] has a Ki of at most 10000 nM. Compound `CCOc1cc(N[C@H]2CN(S(=O)(=O)c3cn(C)cn3)C[C@@H]2c2ccc(F)cc2)ncn1` [Example 715, 6-ethoxy-N-{(3R,4S)-4-(4-fluorophenyl)-1-[(1-methyl-1H-imidazol-4-yl)sulfonyl]pyrrolidin-3-yl}pyrimidin-4-amine] has a Ki of at most 1000 nM. In the case of `Cn1cnc(S(=O)(=O)N2C[C@@H](NC(=O)c3cccc(C#N)c3)[C@H](c3ccccc3)C2)c1` (relative stereo) [Example 33, 3-cyano-N-{trans-1-[(1-methyl-1H-imidazol-4-yl)sulfonyl]-4-phenylpyrrolidin-3-yl}benzamide], the Ki is reported as at most 10000 nM. `Cn1cnc(S(=O)(=O)N2C[C@@H](Nc3ccncc3)[C@H](c3ccc(F)cc3)C2)c1` (relative stereo) [Example 177, N-{trans-4-(4-fluorophenyl)-1-[(1-methyl-1H-imidazol-4-yl)sulfonyl]pyrrolidin-3-yl}pyridin-4-amine] gave a Ki of at most 10000 nM. `Cc1cc(N[C@@H]2CN(S(=O)(=O)c3cn(C)cn3)C[C@H]2[C@@H]2CCCOC2)ccc1F` (mixture of isomers) [Example 790, Trans-N-(4-fluoro-3-methylphenyl)-1-[(1-methyl-1H-imidazol-4-yl)sulfonyl]-4-[(3S)-tetrahydro-2H-pyran-3-yl]pyrrolidin-3-amine] gave a Ki of at most 1000 nM. `Cn1cnc(S(=O)(=O)N2C[C@@H]([C@@H]3CCCOC3)[C@H](Nc3ccc(Cl)c(OC(F)(F)F)c3)C2)c1` (relative stereo) [Example 793, Trans-N-[4-chloro-3-(trifluoromethoxy)phenyl]-1-[(1-methyl-1H-imidazol-4-yl)sulfonyl]-4-[(3S)-tetrahydro-2H-pyran-3-yl]pyrrolidin-3-amine] showed a Ki of at most 10000 nM. In the case of `Cn1cnc(S(=O)(=O)N2C[C@@H](Nc3ccc(Cl)cc3)[C@H](c3ccccc3)C2)c1` (relative stereo) [Example 75, trans-N-(4-chlorophenyl)-1-[(1-methyl-1H-imidazol-4-yl)sulfonyl]-4-phenylpyrrolidin-3-amine], the Ki is reported as at most 1000 nM. `Cc1nc(S(=O)(=O)N2C[C@H](Nc3cc(C(F)(F)F)c(Cl)cn3)[C@@H](c3ccc(F)cc3)C2)cn1C` [Example 760, 5-chloro-N-[(3R,4S)-1-[(1,2-dimethyl-1H-imidazol-4-yl)sulfonyl]-4-(4-fluorophenyl)pyrrolidin-3-yl]-4-(trifluoromethyl)pyridin-2-amine] was tested, and the Ki was over 10000 nM. Compound `CC(C)Oc1cccc(NC2CN(S(=O)(=O)c3cn(C)cn3)CC2c2ccc(F)cc2)c1` (centres unmarked) [Example 349, 4-(4-fluorophenyl)-1-[(1-methyl-1H-imidazol-4-yl)sulfonyl]-N-[3-(propan-2-yloxy)phenyl]pyrrolidin-3-amine] has a Ki of at most 100 nM. `Cn1cnc(S(=O)(=O)N2C[C@@H](NC(=O)c3ccc(C(F)(F)F)cc3)[C@H](c3ccc(F)cc3)C2)c1` (relative stereo) [Example 64, N-{trans-4-(4-fluorophenyl)-1-[(1-methyl-1H-imidazol-4-yl)sulfonyl]pyrrolidin-3-yl}-4-(trifluoromethyl)benzamide] gave a Ki of at most 100 nM.

Same assay, conditions: radioligand binding, recombinant CHO cell membranes expressing human GlyT1c
In the case of `Cn1cnc(S(=O)(=O)N2C[C@@H](Nc3ccc(F)c(C(F)(F)F)c3)[C@H](C3CCOC3)C2)c1` (relative stereo) [Example 832, trans-N-[4-fluoro-3-(trifluoromethyl)phenyl]-1-[(1-methyl-1H-imidazol-4-yl)sulfonyl]-4-(tetrahydrofuran-3-yl)pyrrolidin-3-amine], the Ki is reported as at most 1000 nM.
